These results are taken from patent US20150152035A1, “COSMETIC USE OF SALICYLIC ACID DERIVATIVES” (Avon Products, Inc,, priority 2013, published 2015).

Data set [1] can be described thus: Skin PAMPA parallel artificial membrane penetration assay. Type of data set: in vitro ADME. To be noted: donor pH 4.25, acceptor pH 7.4, 50 nM, two hours incubation; relative to salicylic acid. The procedure: Several salicylic acid derivatives were assessed for their ability to penetrate skin. Each of the compounds was formulated in an aqueous buffer, with a final pH of 4.25 at a concentration of 50 nM. The skin permeability of the compounds was measured using a high throughput transdermal permeability model, the parallel artificial membrane penetration assay (Skin PAMPA™), which uses a skin mimetic artificial membrane that simulates the barrier properties of the strateum corneum.
Briefly, the Skin PAMPA™ assay is a sandwich assay that utilizes two 96-well plate assemblies, one of which acts as the acceptor chambers (comprising a buffer), and one of which acts as the donor chambers (comprising a buffer and the compound to be tested). […] After an incubation period, the donor and acceptor chambers are analyzed for the amount of compound present.
In the current experiments, the acceptor chamber included an acceptor solution made from Prisma™ HT buffer solution (Pion, Inc.) that was adjusted to a pH of 7.4±0.05 using 1.0 M NaOH, and the donor chamber included a donor solution made from Prisma™ HT buffer solution (Pion, Inc.) that was adjusted to a pH of 4.25±0.05 using 1.0 M NaOH. […] Effective permeability was then calculated by the same method as Sinko et al., Eur. J. Pharm. […]
(In general: The PAMPA barrier holds no transporters, so it reflects passive diffusion.)

Data set [2] concerns the target T1, recombinant human (rh) KLK5 protease (Homo sapiens, UniProt Q9Y337).
T1 construct: purchased R&D Systems 1108-SE
T1 sequence (Q9Y337 23-293): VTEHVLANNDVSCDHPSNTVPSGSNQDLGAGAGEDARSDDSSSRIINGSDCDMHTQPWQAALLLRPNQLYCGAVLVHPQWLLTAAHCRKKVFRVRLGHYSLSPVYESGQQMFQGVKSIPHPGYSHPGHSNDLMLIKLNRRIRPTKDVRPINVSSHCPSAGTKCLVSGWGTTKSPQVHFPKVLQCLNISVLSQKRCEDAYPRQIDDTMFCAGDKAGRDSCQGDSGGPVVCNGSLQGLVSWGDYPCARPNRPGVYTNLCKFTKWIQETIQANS
Description: Enzymatic activity of Kallikrein 5 (KLK5), fluorogenic peptide substrate Boc-V-P-R-AMC. The data set is classed as biochemical. The note with it: for KLK5 activity compared to that of salicylic acid: relative to salicylic acid; for stimulation of KLK5 enzymatic activity: rhKLK5 pre-incubated with test compound 60 seconds, rate of substrate cleavage. The source says: In the stratum corneum, skin's outermost layer, cell-to-cell cohesion depends primarily on proteins known as the corneodesmosomes. During skin remodeling and renewal dead cells are shed from the skin surface by the action of native proteases that break down the corneodesmosomes. […] Hypothetically, up-regulation of the activities of these proteases using different active candidates could be utilized to increase the rate of shedding of dead skin, thus providing a natural means for skin exfoliation. To this end, the enzymatic activity of a member of the KLK family, recombinant human (rh) KLK5, was monitored following pre-incubation with actives and measuring the rate of peptide bond cleavage of a synthetic substrate.
Enzymatic activity of KLK5 was measured by incubating recombinant human (rh) KLK5 protease (R&D Systems, Cat No. 1108-SE) with a specific fluorogenic peptide substrate Boc-V-P-R-AMC (R& D Systems, Cat No. ES011). The substrate is conjugated to a quenched fluorescent group. Upon cleavage of the adjacent peptide bond, the fluorescent signal is released, resulting in a measurable emission at 535 nm when excited at 340 nm wavelength. Increase in fluorescence reading indicates an increase in rhKLK5 activity. The test compounds were reacted with recombinant rhKLK5 protease for 60 seconds followed by addition of Boc-V-P-R-AMC Fluorogenic Peptide Substrate. After 60 seconds of incubation, fluorescence was measured at 340 nm (Excitation wavelength) and […] (Emission wavelength) every 1 minute for 7 minutes. Rate (kinetics) of enzyme activity was calculated as follows: Rate of enzyme activity=Change of fluorescent reading (after background correction)/Change of reaction time (min). Percent change of activity due to a test compound was calculated by comparing rate of enzyme activity in the presence of the test compound to that of a control without the test compound and statistical significance was calculated using a t-test. Additionally, the rate of activity of the compounds was compared to that of salicylic acid.

With `CC(C)c1cc(O)c(C(=O)O)c(C(C)C)c1` [Compound A, 4,6-diisopropyl salicylic acid], the “skin permeability (effective permeability)” value in data set [1] was “highest permeability”. Besides, in data set [2], the “KLK5 activity compared to that of salicylic acid” value is reported as “superior KLK5 activity as compared to salicylic acid” and the “stimulation of KLK5 enzymatic activity” value is reported as “potent stimulators of KLK5”.
In the same order, the values of `CC(C)(C)c1cc(O)c(C(=O)O)c(C(C)(C)C)c1` [Compound B, 4,6-di-tert-butyl salicylic acid] are “highest permeability”, “superior KLK5 activity as compared to salicylic acid” and “potent stimulators of KLK5”.
